Where a SMILES comes first, the peptide text is derived from it. Bridges are numbered along the chain shown (N, C = ends). Triazole bridges read from a SMILES are 1,4-linked. [ ]: non-standard residue; d: D form. Aha = [N-]=[N+]=NCC[C@H](N)C(=O)O; Tle = CC(C)(C)[C@H](N)C(=O)O; dDab = NCC[C@@H](N)C(=O)O; Orn = NCCC[C@H](N)C(=O)O; Pra = C#CC[C@H](N)C(=O)O; Dab = NCC[C@H](N)C(=O)O; Dap = NC[C@H](N)C(=O)O
Tests used:
[1] = system: Acinetobacter baumannii DSM 30008; format: cell-based; conditions: DSM 30008
Outline: (§1)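 Peptide MICs were determined by NCCLS broth microdilution in cation-adjusted Mueller-Hinton II broth. Inoculum was about 10^6 CFU/mL, matched to 0.5 McFarland, with peptides in two-fold serial dilutions. The broth contained Polysorbate 80 at 0.002% final concentration.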

[2] = system: Escherichia coli ATCC 25922; format: cell-based; conditions: ATCC 25922
Outline: as §1

[3] = system: Klebsiella pneumoniae ATCC 13883; format: cell-based; conditions: ATCC 13883
Outline: as §1

[4] = system: human red blood cells (hRBC); assay: Hemolysis: hemolytic activity at 100 μg/mL, 1 h at 37° C.; conditions: red cells of human, 1 h, 100
Outline: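 Peptides at 100 μg/mL incubated with washed 20% (v/v) human erythrocytes (~0.9×10^9 cells/mL) for 1 h at 37 °C with shaking. Released hemoglobin read at OD 540 nm in supernatant; 0% and 100% lysis from PBS/0.001% acetic acid and 2.5% Triton X-100.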

Compound	Acinetobacter baumannii DSM 30008 MIC [1]	Escherichia coli ATCC 25922 MIC [2]	Klebsiella pneumoniae ATCC 13883 MIC [3]	Hemolysis at 100 μg/mL [4]
CC(C)C[C@@H]1NC(=O)[C@H](CCCNC(=N)N)NC(=O)[C@@H](CCN)NC(=O)[C@H]([C@@H](C)O)NC(=O)[C@@H]2CSSC[C@H](NC1=O)C(=O)N[C@@H](Cc1ccc(O)cc1)C(=O)N[C@@H](CC(N)=O)C(=O)N[C@@H](CCCN)C(=O)N[C@H](CCN)C(=O)N[C@@H](CCN)C(=O)N[C@@H](Cc1c[nH]c3ccccc13)C(=O)N[C@@H](CO)C(=O)N[C@@H](Cc1ccc(O)cc1)C(=O)N2 [Example 74, cyclo(-Leu-Cys-Tyr-Asn-Orn-^DDab-Dab-Trp-Ser-Tyr-Cys-Thr-^DDab-Arg-)] (HELM PEPTIDE1{C.T.[NCC[C@@H](N[*:1])C(=O)[*:2]].R.L.C.Y.N.[Orn].[NCC[C@@H](N[*:1])C(=O)[*:2]].[Dab].W.S.Y}$PEPTIDE1,PEPTIDE1,1:R3-6:R3|PEPTIDE1,PEPTIDE1,1:R1-14:R2$$$V2.0)	1.5 µg/mL	4 µg/mL	1 µg/mL	1%
CC[C@H](C)[C@@H]1NC(=O)[C@H](Cc2ccc(O)cc2)NC(=O)[C@H]2CCCN2C(=O)[C@H](CO)NC(=O)[C@H](C)NC(=O)[C@H](C(C)(C)C)NC(=O)[C@H](CCN)NC(=O)[C@H](Cc2c[nH]c3ccccc23)NC(=O)[C@H](CCN)NC(=O)[C@@H](CCN)NC(=O)[C@H](CCCN)NC(=O)[C@H](CCN)NC(=O)[C@H](Cc2ccc(O)cc2)NC(=O)[C@H]([C@@H](C)O)NC1=O [Example 47, cyclo(-Ile-Thr-Tyr-Dab-Orn-^DDab-Dab-Trp-Dab-tBuGly-Ala-Ser-^DPro-Tyr-)] (HELM PEPTIDE1{A.S.[dP].Y.I.T.Y.[Dab].[Orn].[NCC[C@@H](N[*:1])C(=O)[*:2]].[Dab].W.[Dab].[CC(C)(C)[C@H](N[*:1])C(=O)[*:2]]}$PEPTIDE1,PEPTIDE1,1:R1-14:R2$$$V2.0)	4 µg/mL	1 µg/mL	1 µg/mL	0%
CC(C)C[C@@H]1NC(=O)[C@H](CCN)NC(=O)[C@@H](CCN)NC(=O)[C@H](CCCN)NC(=O)[C@H](CC(N)=O)NC(=O)[C@H](Cc2ccc(O)cc2)NC(=O)[C@@H]2CSSC[C@H](NC(=O)[C@H](C(C)(C)C)NC(=O)[C@H](CO)NC1=O)C(=O)N[C@@H](C(C)C)C(=O)N[C@H](CCN)C(=O)N[C@@H](CCCNC(=N)N)C(=O)N[C@@H](CC(C)C)C(=O)N2 [Example 4, cyclo(-Leu-Cys-Tyr-Asn-Orn-^DDab-Dab-Leu-Ser-tBuGly-Cys-Val-^DDab-Arg-)] (cyclo(CV[dDab]RLCYN[Orn][dDab][Dab]LS[Tle]); disulfide 1-6)	0.25 µg/mL	0.75 µg/mL	0.5 µg/mL	4%
CC(C)C[C@@H]1NC(=O)[C@H](CCCNC(=N)N)NC(=O)[C@@H](C)NC(=O)[C@H](C(C)C)NC(=O)[C@@H]2CSSC[C@H](NC1=O)C(=O)N[C@@H](Cc1ccc(O)cc1)C(=O)N[C@@H](CC(N)=O)C(=O)N[C@@H](CCCN)C(=O)N[C@H](CCN)C(=O)N[C@@H](CCN)C(=O)N[C@@H](Cc1c[nH]c3ccccc13)C(=O)N[C@@H](CCN)C(=O)N[C@@H](Cc1ccc(O)cc1)C(=O)N2 [Example 79, cyclo(-Leu-Cys-Tyr-Asn-Orn-^DDab-Dab-Trp-Dab-Tyr-Cys-Val-^DAla-Arg-)] (HELM PEPTIDE1{C.V.[dA].R.L.C.Y.N.[Orn].[NCC[C@@H](N[*:1])C(=O)[*:2]].[Dab].W.[Dab].Y}$PEPTIDE1,PEPTIDE1,1:R3-6:R3|PEPTIDE1,PEPTIDE1,1:R1-14:R2$$$V2.0)	1.5 µg/mL	1 µg/mL	1 µg/mL	1%
CC(C)[C@@H]1NC(=O)[C@@H]2CCCN2C(=O)[C@H]2CCCN2C(=O)[C@H](CO)NC(=O)[C@@H]2CCn3cc(nn3)C[C@H](NC1=O)C(=O)N[C@@H](Cc1ccc(O)cc1)C(=O)N[C@@H](CCN)C(=O)N[C@@H](CN)C(=O)N[C@H](CCN)C(=O)N[C@@H](CCN)C(=O)N[C@@H](Cc1c[nH]c3ccccc13)C(=O)N[C@@H](CCN)C(=O)N[C@@H](C(C)(C)C)C(=O)N2 [Example 34, cyclo(-Val-Pra-Tyr-Dab-Dap-^DDab-Dab-Trp-Dab-tBuGly-Abu(4N3)-Ser-^DPro-Pro-)] (cyclo(V[Pra]Y[Dab][Dap][dDab][Dab]W[Dab][Tle][Aha]S[dP]P); triazole 2-11)	4 µg/mL	4 µg/mL	2 µg/mL	0%
CC(C)C[C@@H]1NC(=O)[C@H](CCCNC(=N)N)NC(=O)[C@H]2CCCN2C(=O)[C@H](C(C)C)NC(=O)[C@H]([C@@H](C)O)NC(=O)[C@H](C(C)C)NC(=O)[C@@H]2CSSC[C@H](NC(=O)[C@H](Cc3ccc(O)cc3)NC(=O)[C@H]([C@@H](C)O)NC1=O)C(=O)N[C@@H](CCN)C(=O)N[C@@H](CCN)C(=O)N[C@@H](CCN)C(=O)N[C@@H](Cc1c[nH]c3ccccc13)C(=O)N2 [Example 35, cyclo(-Leu-Thr-Tyr-Cys-Dab-Dab-Dab-Trp-Cys-Val-Thr-Val-^DPro-Arg-)] (HELM PEPTIDE1{C.[Dab].[Dab].[Dab].W.C.V.T.V.[dP].R.L.T.Y}$PEPTIDE1,PEPTIDE1,1:R3-6:R3|PEPTIDE1,PEPTIDE1,1:R1-14:R2$$$V2.0)	1 µg/mL	2 µg/mL	2 µg/mL	4%
CC(C)C[C@@H]1NC(=O)[C@H](CCCNC(=N)N)NC(=O)[C@@H](CCN)NC(=O)[C@H](C(C)C)NC(=O)[C@@H]2CSSC[C@H](NC1=O)C(=O)N[C@@H](C(C)C)C(=O)N[C@@H](C(C)C)C(=O)N[C@@H](CCCN)C(=O)N[C@H](CCN)C(=O)N[C@@H](CCN)C(=O)N[C@@H](Cc1c[nH]c3ccccc13)C(=O)N[C@@H](Cc1ccc(O)cc1)C(=O)N[C@@H](Cc1ccc(O)cc1)C(=O)N2 [Example 20, cyclo(-Leu-Cys-Val-Val-Orn-^DDab-Dab-Trp-Tyr-Tyr-Cys-Val-^DDab-Arg-)] (HELM PEPTIDE1{C.V.V.[Orn].[NCC[C@@H](N[*:1])C(=O)[*:2]].[Dab].W.Y.Y.C.V.[NCC[C@@H](N[*:1])C(=O)[*:2]].R.L}$PEPTIDE1,PEPTIDE1,1:R3-10:R3|PEPTIDE1,PEPTIDE1,1:R1-14:R2$$$V2.0)	0.25 µg/mL	1 µg/mL	1 µg/mL	7%
CC[C@H](C)[C@@H]1NC(=O)[C@@H]2CCCN2C(=O)[C@@H](CCN)NC(=O)[C@H](CO)NC(=O)[C@@H]2CSSC[C@H](NC1=O)C(=O)N[C@@H](Cc1ccc(O)cc1)C(=O)N[C@@H](CCN)C(=O)N[C@@H](CCCN)C(=O)N[C@H](CCN)C(=O)N[C@@H](CCN)C(=O)N[C@@H](Cc1c[nH]c3ccccc13)C(=O)N[C@@H](CCN)C(=O)N[C@@H](C(C)(C)C)C(=O)N2 [Example 14, cyclo(-Ile-Cys-Tyr-Dab-Orn-^DDab-Dab-Trp-Dab-tBuGly-Cys-Ser-^DDab-Pro-)] (cyclo(CS[dDab]PICY[Dab][Orn][dDab][Dab]W[Dab][Tle]); disulfide 1-6)	1 µg/mL	0.5 µg/mL	1 µg/mL	1%
CC(C)C[C@@H]1NC(=O)[C@H](CCCNC(=N)N)NC(=O)[C@@H](CCN)NC(=O)[C@H](C(C)C)NC(=O)[C@@H]2CSSC[C@H](NC1=O)C(=O)N[C@@H](Cc1ccc(O)cc1)C(=O)N[C@@H](CCC(N)=O)C(=O)N[C@@H](CCCN)C(=O)N[C@H](CCN)C(=O)N[C@@H](CCN)C(=O)N[C@@H](Cc1c[nH]c3ccccc13)C(=O)N[C@@H](CO)C(=O)N[C@@H](Cc1ccc(O)cc1)C(=O)N2 [Example 62, cyclo(-Leu-Cys-Tyr-Gln-Orn-^DDab-Dab-Trp-Ser-Tyr-Cys-Val-^DDab-Arg-)] (HELM PEPTIDE1{C.V.[NCC[C@@H](N[*:1])C(=O)[*:2]].R.L.C.Y.Q.[Orn].[NCC[C@@H](N[*:1])C(=O)[*:2]].[Dab].W.S.Y}$PEPTIDE1,PEPTIDE1,1:R3-6:R3|PEPTIDE1,PEPTIDE1,1:R1-14:R2$$$V2.0)	0.625 µg/mL	0.375 µg/mL	1 µg/mL	2%
CC(C)[C@@H]1NC(=O)[C@H](CCCNC(=N)N)NC(=O)[C@@H](CCN)NC(=O)[C@H](C(C)C)NC(=O)[C@@H]2CSSC[C@H](NC1=O)C(=O)N[C@@H](Cc1ccc(O)cc1)C(=O)N[C@@H](CC(N)=O)C(=O)N[C@@H](CCCN)C(=O)N[C@H](CCN)C(=O)N[C@@H](CCN)C(=O)N[C@@H](Cc1c[nH]c3ccccc13)C(=O)N[C@@H](CO)C(=O)N[C@@H](Cc1ccc(O)cc1)C(=O)N2 [Example 57, cyclo(-Val-Cys-Tyr-Asn-Orn-^DDab-Dab-Trp-Ser-Tyr-Cys-Val-^DDab-Arg-)] (HELM PEPTIDE1{C.V.[NCC[C@@H](N[*:1])C(=O)[*:2]].R.V.C.Y.N.[Orn].[NCC[C@@H](N[*:1])C(=O)[*:2]].[Dab].W.S.Y}$PEPTIDE1,PEPTIDE1,1:R3-6:R3|PEPTIDE1,PEPTIDE1,1:R1-14:R2$$$V2.0)	1.25 µg/mL	1 µg/mL	1.5 µg/mL	1%
